In ChEMBL document CHEMBL4811220, “Investigation of the in vitro and in vivo efficacy of peptoid-based HDAC inhibitors with dual-stage antiplasmodial activity” (Eur J Med Chem, 2021):
Activity calls are given as the source filed them. No cut-off for these calls is given here.

Key:
[1] = Intrinsic clearance in human liver microsomes measured upto 40 mins by LC-MS/MS analysis; assay type: ADME, Microsome; conditions: read-out: CLH
[2] = Half life in human liver microsomes measured upto 40 mins by LC-MS/MS analysis; assay type: ADME, Microsome
[3] = Half life in mouse liver microsomes measured upto 40 mins by LC-MS/MS analysis
[4] = Intrinsic clearance in mouse liver microsomes measured upto 40 mins by LC-MS/MS analysis
[5] = system: Plasmodium falciparum; assay: microbe, parasite or virus in culture; assay type: functional, organism-based; conditions: 3D7, Erythrocyte
[6] = system: Plasmodium falciparum; assay: Antiplasmodial activity against multidrug-resistant asexual intraerythrocytic stage of Plasmodium falciparum Dd2 assessed as inhibition of parasite growth incubated for 48 hrs followed by addition of [3H]hypoxanthine for 24 hrs by [3H]hypoxanthine incorporation assay; assay type: functional, organism-based
[7] = Selective index, ratio of IC50 for human HepG2-A16-CD81EGFP cells to IC50 for antiplasmodial activity against liver stage exo-erythrocytic forms of Plasmodium berghei sporozoites infected in human HepG2-A16-CD81EGFP cells
[8] = system: Plasmodium falciparum 3D7; assay: Inhibition of HDAC in trophozite-stage of Plasmodium falciparum 3D7 infected in erythrocytes assessed as hyperacetylation of histone H4 at lysine residue at 5 x IC50 incubated for 3 hrs by western blot analysis; assay type: cell-based
[9] = Selectivity index, ratio of IC50 for cytotoxicity against human HepG2-A16-CD81EGFP cells to IC50 for antiplasmodial activity against drug-sensitive asexual intraerythrocytic stage of Plasmodium falciparum 3D7 infected in human O+ erythrocytes
[10] = biological target: Histone deacetylase 1 (Homo sapiens, UniProt Q13547)
Description: Inhibition of C-terminal FLAG/His-tagged human recombinant HDAC1 (1 to 482 residues) expressed in baculovirus infected Sf9 cells using ZMAL (Z-Lys(Ac)-AMC) as fluorogenic substrate incubated for 90 mins by fluorescence based assay

[11] = biological target: T1, Protein deacetylase HDAC6 (Homo sapiens, UniProt Q9UBN7); assay: biochemical
T1 sequence (Q9UBN7 whole entry): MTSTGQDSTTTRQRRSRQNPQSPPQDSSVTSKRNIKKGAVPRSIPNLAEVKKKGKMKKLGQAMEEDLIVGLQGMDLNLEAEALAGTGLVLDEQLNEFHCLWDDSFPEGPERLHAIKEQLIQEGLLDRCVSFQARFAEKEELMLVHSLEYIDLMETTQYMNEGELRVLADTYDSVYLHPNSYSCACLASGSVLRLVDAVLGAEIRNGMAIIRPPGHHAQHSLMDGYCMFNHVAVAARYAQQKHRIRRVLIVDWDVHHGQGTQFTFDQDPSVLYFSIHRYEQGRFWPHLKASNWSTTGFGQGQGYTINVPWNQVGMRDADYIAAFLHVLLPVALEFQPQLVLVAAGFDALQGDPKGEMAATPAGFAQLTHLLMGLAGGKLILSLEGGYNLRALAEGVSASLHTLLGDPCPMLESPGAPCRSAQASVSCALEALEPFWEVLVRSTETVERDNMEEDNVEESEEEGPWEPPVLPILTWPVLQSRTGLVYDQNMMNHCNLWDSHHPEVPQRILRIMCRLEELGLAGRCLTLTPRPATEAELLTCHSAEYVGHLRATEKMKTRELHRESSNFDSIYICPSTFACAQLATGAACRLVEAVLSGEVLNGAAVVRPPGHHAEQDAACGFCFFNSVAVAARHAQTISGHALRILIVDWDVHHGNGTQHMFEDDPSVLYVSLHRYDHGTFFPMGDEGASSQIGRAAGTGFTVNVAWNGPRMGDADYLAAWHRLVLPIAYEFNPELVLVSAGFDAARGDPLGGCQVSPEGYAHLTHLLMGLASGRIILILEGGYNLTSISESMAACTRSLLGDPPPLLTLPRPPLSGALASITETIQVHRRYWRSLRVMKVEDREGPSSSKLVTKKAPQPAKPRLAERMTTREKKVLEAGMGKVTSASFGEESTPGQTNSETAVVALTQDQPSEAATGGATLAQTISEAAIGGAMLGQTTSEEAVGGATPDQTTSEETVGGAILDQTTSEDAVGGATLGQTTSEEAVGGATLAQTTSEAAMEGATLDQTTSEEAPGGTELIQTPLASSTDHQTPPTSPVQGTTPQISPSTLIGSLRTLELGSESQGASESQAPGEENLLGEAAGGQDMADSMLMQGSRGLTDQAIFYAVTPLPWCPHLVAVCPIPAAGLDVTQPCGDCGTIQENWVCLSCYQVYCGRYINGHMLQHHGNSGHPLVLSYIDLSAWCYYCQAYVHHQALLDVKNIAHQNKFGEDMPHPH
Description: Inhibition of N-terminal GST-tagged full length human recombinant HDAC6 expressed in baculovirus infected Sf9 cells using ZMAL (Z-Lys(Ac)-AMC) fluorogenic substrate incubated for 90 mins by fluorescence based assay

[12] = system: Plasmodium berghei; assay: microbe, parasite or virus in culture; assay type: functional, organism-based
[13] = system: Plasmodium falciparum; assay: Resistance index, ratio of IC50 for antiplasmodial activity against multidrug-resistant asexual intraerythrocytic stage of Plasmodium falciparum Dd2 to IC50 for antiplasmodial activity against drug-sensitive asexual intraerythrocytic stage of Plasmodium falciparum 3D7 infected in human O+ erythrocytes by [3H]-hypoxanthine incorporation assay; assay type: functional
[14] = system: HepG2; assay: Cytotoxicity against human HepG2-A16-CD81EGFP cells assessed as inhibition of cell growth incubated for 24 hrs followed by medium transfer and incubation in multimode plate for 48 hrs by CellTiterGlo reagent based luminescence assay
[15] = system: Plasmodium berghei; assay: (§1) Antimalarial activity against Plasmodium berghei QIMR infected in BALB/c mouse assessed as reduction in peripheral blood parasitemia at 25 mg/kg, po bid for 4 days starting from 2 hrs post infection and measured on 4 to 6 days post-infection by Giemsa staining based microscopic analysis relative to control; assay type: functional; conditions: time 4-6 day
[16] = system: Plasmodium falciparum 3D7; assay: Inhibition of HDAC in trophozite-stage of Plasmodium falciparum 3D7 infected in erythrocytes assessed as hyperacetylation of histone H4 at lysine residue at 5 x IC50 incubated for 3 hrs by western blot analysis relative to control; assay type: cell-based
[17] = system: Plasmodium berghei; assay: as §1, with “10” for “25”, “qd” for “bid”, “post-infection” for “post infection”; conditions: read-out: INH
[18] = Selectivity index, ratio of IC50 for cytotoxicity against human HepG2-A16-CD81EGFP cells to IC50 for antiplasmodial activity against multidrug-resistant asexual intraerythrocytic stage of Plasmodium falciparum Dd2; assay type: toxicity, cell-based; conditions: read-out: Ratio IC50

Sequence of Histone deacetylase 1 (Q13547 whole entry): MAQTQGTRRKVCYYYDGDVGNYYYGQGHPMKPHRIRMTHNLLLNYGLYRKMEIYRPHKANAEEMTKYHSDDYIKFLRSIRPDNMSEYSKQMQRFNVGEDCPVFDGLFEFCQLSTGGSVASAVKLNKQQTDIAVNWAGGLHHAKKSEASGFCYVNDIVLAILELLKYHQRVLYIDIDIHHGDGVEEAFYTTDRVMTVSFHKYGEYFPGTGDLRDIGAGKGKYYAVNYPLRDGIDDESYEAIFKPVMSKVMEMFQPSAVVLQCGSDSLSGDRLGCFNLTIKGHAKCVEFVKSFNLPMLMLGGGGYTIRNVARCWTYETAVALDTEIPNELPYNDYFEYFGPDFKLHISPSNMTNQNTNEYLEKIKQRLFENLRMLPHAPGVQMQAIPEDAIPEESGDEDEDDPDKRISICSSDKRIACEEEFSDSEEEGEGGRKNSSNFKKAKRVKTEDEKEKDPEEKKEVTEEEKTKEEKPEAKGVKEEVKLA

Row | half-life at 40 min ([3]; microsomes) [min] | SMILES | microsomal CLint [1] [µL/min/mg] | half-life [2] [min] | half-life at 40 min ([3]; liver microsomes) [min] | microsomal CLint at 40 min [4] [µL/min/mg] | IC50 [5] [nM] | IC50 [6] [nM] | selectivity ratio [7] | inhibition [8] | selectivity ratio [9] | IC50 [10] [nM] | IC50 [11] [nM] | IC50 [12] [nM] | Ratio IC50 [13] | IC50 [14] [nM] | inhibition in vivo at 25 mg/kg [15] [%] | fold change (FC) [16] | inhibition in vivo at 10 mg/kg/day [17] [%] | selectivity ratio [18]
1 | – | Cn1c(=O)c2c(ncn2C)n(C)c1=O [CAFFEINE] | 2 | 1030 | – | – | – | – | – | – | – | – | – | – | – | – | – | – | – | –
2 | – | CC(C)c1ccc(NC(=O)CN(Cc2ccc(C(=O)NO)cc2)C(=O)Cc2ccccc2)cc1 | 72 | 23.5 | 44.3 | 38 | – | – | – | – | – | – | – | – | – | – | – | – | – | –
3 | – | Cc1ccc(C(=O)N(CC(=O)NC2CCCCC2)Cc2ccc(C(=O)NO)cc2)c(C)c1 | 139 | 12.2 | 17.9 | 94 | 8 | 4 | 139 | inactive | 1040 | 260 | 40 | 60 | 0.5 | 8330 | 31 | – | – | –
4 | – | CC(C)c1ccc(CC(=O)N(CC(=O)NC2CCCCC2)Cc2ccc(C(=O)NO)cc2)cc1 | – | – | – | – | 215 | – | 12 | – | 117 | 2030 | 40 | 2020 | – | 25100 | – | – | – | –
5 | – | Cc1cc(C)cc(C(=O)N(CC(=O)N2CCCCC2)Cc2ccc(C(=O)NO)cc2)c1 | – | – | – | – | 509 | – | 5 | – | 69 | 4050 | 130 | 6560 | – | 35000 | – | – | – | –
6 | – | Cc1cc(C)cc(C(=O)N(CC(=O)N(C)C)Cc2ccc(C(=O)NO)cc2)c1 | – | – | – | – | 1040 | – | – | – | > 48 | 8000 | 230 | 8250 | – | > 50000 | – | – | – | –
7 | – | O=C(CCCCCCC(=O)Nc1ccccc1)NO [VORINOSTAT] | – | – | – | – | – | – | – | – | – | – | – | – | – | 7600 | – | – | – | –
8 | – | CC(C)c1ccc(C(=O)N(Cc2ccc(C(=O)NO)cc2)C(C)(C)C(=O)NC2CCCCC2)cc1 | 144 | 11.7 | 55.6 | 30 | 101 | 33 | > 10 | inactive | > 495 | 970 | 270 | 4900 | 0.3 | > 50000 | 0.5 | – | – | –
9 | – | O=C(CN(Cc1ccc(C(=O)NO)cc1)C(=O)Cc1ccccc1)NC1CCCCC1 | – | – | – | – | 281 | – | > 61 | – | > 178 | 2430 | 50 | 820 | – | > 50000 | – | – | – | –
10 | – | O=C(O)Cc1ccccc1Nc1c(Cl)cccc1Cl [DICLOFENAC] | 248 | 6.8 | – | – | – | – | – | – | – | – | – | – | – | – | – | – | – | –
11 | – | CN(C)c1ccc(C(=O)N(Cc2ccc(C(=O)NO)cc2)C(C)(C)C(=O)NCc2ccccc2)cc1 | – | – | – | – | 161 | – | > 12 | – | > 311 | 440 | 70 | 4270 | – | > 50000 | – | – | – | –
12 | – | CC(C)c1ccc(C(=O)N(Cc2ccc(C(=O)NO)cc2)C(C)(C)C(=O)NCc2ccccc2)cc1 | – | – | – | – | 142 | – | > 6 | – | > 352 | 280 | 60 | 8670 | – | > 50000 | – | – | – | –
13 | – | Cc1ccccc1C(=O)N(CC(=O)NCc1ccccc1)Cc1ccc(C(=O)NO)cc1 | – | – | – | – | 70 | 21 | 32 | – | 137 | 280 | 30 | 300 | 0.3 | 9620 | – | 2 | – | –
14 | 54.3 | CC(C)NCC(O)COc1cccc2ccccc12 (stereo unspecified) [PROPRANOLOL] | – | – | – | – | – | – | – | – | – | – | – | – | – | – | – | – | – | –
15 | – | O=C(CN(Cc1ccc(C(=O)NO)cc1)C(=O)Cc1ccccc1)NCc1ccccc1 | – | – | – | – | 213 | – | 24 | – | 103 | 600 | 30 | 920 | – | 21900 | – | – | – | –
16 | – | Cc1ccc(C(=O)N(CC(=O)NCc2ccccc2)Cc2ccc(C(=O)NO)cc2)c(C)c1 | 86 | 19.7 | 44.8 | 38 | 24 | 3 | 23 | – | 155 | 60 | 60 | 160 | 0.1 | 3710 | 17.6 | 2 | – | –
17 | – | Cc1ccccc1C(=O)N(CC(=O)NC12CC3CC(CC(C3)C1)C2)Cc1ccc(C(=O)NO)cc1 | – | – | – | – | 127 | – | 24 | – | 102 | 100 | 30 | 540 | – | 13000 | – | – | – | –
18 | – | CC(C)c1ccc(C(=O)N(CC(=O)NC23CC4CC(CC(C4)C2)C3)Cc2ccc(C(=O)NO)cc2)cc1 | – | – | – | – | 28 | 6 | 13 | – | 154 | 300 | 250 | 340 | 0.2 | 4320 | – | – | – | –
19 | – | CCN(CC)CCCC(C)Nc1ccnc2cc(Cl)ccc12 (stereo unspecified) [CHLOROQUINE] | – | – | – | – | – | – | – | – | – | – | – | – | – | – | – | – | 100 | –
20 | – | O=C(CN(Cc1ccc(C(=O)NO)cc1)C(=O)c1cccc2ccccc12)NCc1ccccc1 | 41 | 41.4 | 19.3 | 87 | 34 | 14 | 20 | Active | 376 | 130 | 10 | 630 | 0.4 | 12800 | 25.9 | – | – | –
21 | – | CC(C)c1ccc(CC(=O)N(CC(=O)NCc2ccccc2)Cc2ccc(C(=O)NO)cc2)cc1 | – | – | – | – | 76 | 23 | 11 | Active | 395 | 780 | 20 | 2700 | 0.3 | 30000 | – | – | – | –
22 | – | CNC(=O)CN(Cc1ccc(C(=O)NO)cc1)C(=O)c1ccc(C(C)C)cc1 | 5 | 347 | 271 | 6 | 16 | 2 | 19 | Active | 573 | 100 | 60 | 480 | 0.1 | 9160 | 33.3 | – | – | 4580
